Measurements taken from publication PMC9973256, “A Cysteine Pair Controls Flavin Reduction by Extracellular Cytochromes during Anoxic/Oxic Environmental Transitions” (mBio, 2023).

Assays:
Format in all cases: binding
[1] = target: T1, MtrCsol (soluble MtrC) (Shewanella oneidensis, UniProt Q8EG34, C453S); assay: […] NMR titration of FMN; settings: oxidized protein; 20 mM potassium phosphate pH 7.6, 100 mM KCl, 25 °C; slow exchange
T1 construct: soluble form; lipid anchor site and signal peptide replaced by MtrB signal peptide; C-terminal StrepTactin tag; expressed in S. oneidensis delta-mtrC (LS661); decaheme

[2] = target: T2, MtrCsol (soluble MtrC) (Shewanella oneidensis, UniProt Q8EG34); assay: copurification through anaerobic PD10 size exclusion column, flavin fluorescence; settings: 1 mM DTT (disulfide reduced), no copurification without DTT or with 50 uM dithionite only
T2 construct: soluble form; lipid anchor site and signal peptide replaced by MtrB signal peptide; C-terminal StrepTactin tag; expressed in S. oneidensis delta-mtrC (LS661); decaheme
T2 sequence (Q8EG34 26-671): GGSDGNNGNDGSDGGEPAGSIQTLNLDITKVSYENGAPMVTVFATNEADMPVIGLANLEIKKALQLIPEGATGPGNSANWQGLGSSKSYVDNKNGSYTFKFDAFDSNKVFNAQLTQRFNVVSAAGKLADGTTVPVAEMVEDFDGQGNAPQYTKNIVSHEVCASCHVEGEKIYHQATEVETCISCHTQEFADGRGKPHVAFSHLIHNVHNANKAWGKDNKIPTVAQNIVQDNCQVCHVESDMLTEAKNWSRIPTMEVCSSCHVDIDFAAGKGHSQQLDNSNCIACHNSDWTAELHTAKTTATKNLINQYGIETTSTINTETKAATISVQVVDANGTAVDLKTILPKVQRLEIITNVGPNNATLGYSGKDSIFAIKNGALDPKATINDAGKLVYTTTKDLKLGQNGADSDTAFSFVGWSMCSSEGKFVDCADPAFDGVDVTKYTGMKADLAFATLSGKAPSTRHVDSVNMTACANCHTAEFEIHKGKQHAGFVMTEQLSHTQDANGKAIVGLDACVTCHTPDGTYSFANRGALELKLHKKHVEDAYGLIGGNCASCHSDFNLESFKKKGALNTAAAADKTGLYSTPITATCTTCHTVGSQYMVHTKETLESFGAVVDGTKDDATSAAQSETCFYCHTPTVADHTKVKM

[3] = target: T3, MtrCsol (soluble MtrC) (Shewanella oneidensis, UniProt Q8EG34, C453A); assay: as above; settings: 50 uM sodium dithionite (reduced FMN and heme), also with 1 mM DTT, no copurification without reductant
T3 construct: soluble form; lipid anchor site and signal peptide replaced by MtrB signal peptide; C-terminal StrepTactin tag; expressed in S. oneidensis delta-mtrC (LS661); decaheme
T3 sequence (Q8EG34 entry or part of it C453A): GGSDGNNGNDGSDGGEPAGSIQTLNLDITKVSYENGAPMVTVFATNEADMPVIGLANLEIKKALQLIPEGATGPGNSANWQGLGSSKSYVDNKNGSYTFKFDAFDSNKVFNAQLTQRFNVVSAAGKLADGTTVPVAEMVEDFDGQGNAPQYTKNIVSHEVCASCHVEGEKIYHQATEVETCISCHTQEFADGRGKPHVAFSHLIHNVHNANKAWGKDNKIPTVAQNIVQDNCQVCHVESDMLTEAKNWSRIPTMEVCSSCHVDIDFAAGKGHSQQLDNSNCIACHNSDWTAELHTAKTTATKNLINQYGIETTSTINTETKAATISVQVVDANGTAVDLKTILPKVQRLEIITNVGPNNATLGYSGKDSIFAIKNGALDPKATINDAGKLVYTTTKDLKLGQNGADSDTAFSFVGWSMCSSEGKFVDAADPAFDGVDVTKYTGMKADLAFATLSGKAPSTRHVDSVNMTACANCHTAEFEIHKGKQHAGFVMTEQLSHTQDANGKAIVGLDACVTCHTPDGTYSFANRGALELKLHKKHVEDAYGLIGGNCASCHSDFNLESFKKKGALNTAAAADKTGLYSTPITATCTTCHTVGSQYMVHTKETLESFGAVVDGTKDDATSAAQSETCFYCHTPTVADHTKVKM

T1 sequence (Q8EG34 entry or part of it C453S): as the sequence (Q8EG34 entry or part of it C453A) above, with A428S counted along it

## Cc1cc2nc3c(=O)[nH]c(=O)nc-3n(C[C@H](O)[C@H](O)[C@H](O)COP(=O)(O)O)c2cc1C [FMN]
[1]
  31P NMR titration of FMN: signal of FMN upon exposure to oxidized MtrCC453Ssol was monitored
[2]
  copurification through anaerobic PD10 size exclusion column, flavin fluorescence: showing that MtrCC453Asol would form a similar FMN complex to MtrCsol in the presence of DTT
[3]
  copurification through anaerobic PD10 size exclusion column, flavin fluorescence: revealed copurification of FMN with MtrCC453Asol but not MtrCsol
